Patent publication US10813894B2, “Methods of inhibiting pain” (The Regents of the University of California, priority 2015, dated 2020)
“Also recorded” adds a separate entry of the source. Values belong to the compound of their own block, whether it stands above or below them.

Columns and labels:
healthy rats [1] = experiment: Intraplantar tunicamycin (Tm) induced pain model, mechanical withdrawal; format: in vivo, rat
Protocol: (§1) FIGS. 7A-F illustrate that ER stress inducer tunicamycin (Tm) is rapid, intense and selective in generating pain behavior. (A) Tm is administered into the midsection of one hind paw in a volume of 10 μL (20 μg). Mechanical withdrawal of ipsi- and contralateral paws are then monitored over a period of 6 h until the ipsilateral paw measurements returned to baseline values. The withdrawal data are presented as gram force required for inducing a withdrawal reflex response. (B) Decreasing doses of Tm generated less intense allodynia which subsided faster than the highest dose. […] (D) Intraplantar Tm induced pain is reversible with sEH inhibitor (lh prior to Tm, i.p. administration) in a dose dependent manner. (E) Expectedly this pain is reversible with chemical chaperone 4-PBA. The basis for the increase above the baseline threshold in this group is not investigated.

type I diabetic rats = experiment: STZ induced type I diabetic rat neuropathic pain model, electronic von Frey test; conditions: for Drug reduction index: combination of 4-PBA and TPPU, CompuSyn
healthy rats [2] = experiment: von Frey mechanical withdrawal threshold in healthy rats; conditions: 4-PBA 40 mg/kg
healthy rats [3] = experiment: Intraplantar Tm, thermal withdrawal threshold (modified Hargreaves' test); format: in vivo, rat
Protocol: as §1

sEH = target: T1, sEH (Homo sapiens, UniProt P34913); experiment: Inhibition of sEH, assay not specified; format: biochemical
T1 sequence (P34913 1-555): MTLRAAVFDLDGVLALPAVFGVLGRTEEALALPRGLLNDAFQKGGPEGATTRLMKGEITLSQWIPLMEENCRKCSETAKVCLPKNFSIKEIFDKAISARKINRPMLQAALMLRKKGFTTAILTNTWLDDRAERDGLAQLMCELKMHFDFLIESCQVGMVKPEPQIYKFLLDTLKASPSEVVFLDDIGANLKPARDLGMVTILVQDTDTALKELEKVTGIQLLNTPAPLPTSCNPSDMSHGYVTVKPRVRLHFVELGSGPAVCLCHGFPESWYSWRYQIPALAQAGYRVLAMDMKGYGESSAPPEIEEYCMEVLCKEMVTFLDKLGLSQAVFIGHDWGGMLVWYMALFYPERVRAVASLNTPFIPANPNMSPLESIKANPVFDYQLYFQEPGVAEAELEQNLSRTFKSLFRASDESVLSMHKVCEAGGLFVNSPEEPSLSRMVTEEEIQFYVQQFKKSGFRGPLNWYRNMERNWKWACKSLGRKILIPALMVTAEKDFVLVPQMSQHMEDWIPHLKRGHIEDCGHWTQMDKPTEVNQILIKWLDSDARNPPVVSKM
Text: “Soluble epoxide hydrolase” (“sEH”) is an epoxide hydrolase which in endothelial and smooth muscle cells converts EETs to dihydroxy derivatives called dihydroxyeicosatrienoic acids (“DHETs”). The cloning and sequence of the murine sEH is set forth in Grant et al., J. Biol. Chem. 268(23):17628-17633 (1993). The cloning, sequence, and accession numbers of the human sEH sequence are set forth in Beetham et al., Arch. Biochem. Biophys. […] The amino acid sequence of human sEH is SEQ ID NO.:1, while the nucleic acid sequence encoding the human sEH is SEQ ID NO.:2. […] Unless otherwise specified, as used herein, the terms “soluble epoxide hydrolase” and “sEH” refer to human sEH.
Derivatives of urea are transition state mimetics that form a preferred group of sEH inhibitors. […] Any particular urea derivative or other compound can be easily tested for its ability to inhibit sEH by standard assays, such as those discussed herein. The production and testing of urea and carbamate derivatives as sEH inhibitors is set forth in detail in, for example, Morisseau et al., Proc Natl Acad Sci (USA) 96:8849-8854 (1999).
Any of a number of standard assays for determining epoxide hydrolase activity can be used to determine inhibition of sEH. […] Suitable in vitro assays are described in Zeldin et al., J Biol. Chem. 268:6402-6407 (1993). […]

healthy rats [4] = experiment: Intraplantar dimethylcelecoxib (DMCx) induced pain model; format: in vivo, rat
Protocol: FIGS. 9A-C illustrate that mechanistically different ER stress inducer dimethylcelecoxib (DMCx) generates a rapid and intense but sEHI and cox-2 inhibitor reversible pain phenotype. (A) DMCx is administered into the midsection of one hind paw in a volume of 10 μL (20 μg). Mechanical withdrawal of ipsi- and contralateral paws are then monitored over a period of 4 h. The withdrawal data are presented as gram force required for inducing a withdrawal reflex response. (B) Intraplantar DMCx induced pain is reversible with sEH inhibitor (1 h prior to Tm, i.p. administration) in a dose dependent manner.

Compound: O=C(O)CCCc1ccccc1 [Compound 4-PBA, 4-phenyl butyric acid]
Reversal of Tm induced sensitivity to mechanical stimuli (healthy rats [1]; pre-administration i.p. 1 h prior to Tm, celecoxib 30 mg/kg): reversed; also recorded: reversible
Drug reduction index (type I diabetic rats; at ED50): 2.2 fold
Drug reduction index (type I diabetic rats; at ED97): 3.9 fold
Allodynia / antinociception (von Frey withdrawal threshold) (type I diabetic rats; diabetic rats, i.p., 4-PBA 10-100 mg/kg, TPPU 0.01-1 mg/kg): dose and time dependent antinociception occurs within minutes; also recorded: reduce allodynia in a dose and time dependent manner
Antinociceptive efficacy at the highest dose (type I diabetic rats; diabetic rats, systemic delivery, highest dose): full efficacy and rapid onset
Effect on pain-related behavior at 10 mg/kg (type I diabetic rats; type I diabetic rats, 10 mg/kg, 6 h time period): ineffective
Acute mechanical withdrawal threshold in healthy rats (healthy rats [2]): not antinociceptive; also recorded: does not result in change of acute mechanical withdrawal threshold

Compound: tunicamycin [Tm]
Induction of pain by intraplantar administration (healthy rats [1]; hind paw of healthy rats): induce a significant degree of pain
Swelling after intraplantar administration (healthy rats [1]; intraplantar Tm): Minimal amount of swelling
Mechanical withdrawal threshold after Tm (healthy rats [1]; intraplantar, 20 μg, ipsilateral paw): 25 % of the baseline levels
Heat responses / thermal withdrawal threshold of the ipsilateral paw (healthy rats [3]): rapid and sustained loss of heat responses; also recorded: notable increase in thermal withdrawal threshold

Activity on sEH (sEH): particularly high activity
Compound: CCCCCCCCCCCCNC(=O)NC12CC3CC(CC(C3)C1)C2 [ADU, N-Adamantyl-N′-dodecyl urea]

Swelling after intraplantar administration (healthy rats [4]): Swelling of the ipsilateral paw
Compound: Cc1ccc(C)c(-c2cc(C(F)(F)F)nn2-c2ccc(S(N)(=O)=O)cc2)c1 [DMCx, dimethyl-celecoxib]
